Format in all cases: cell-based, human
For assay [1], the system named is UACC 903 melanoma cells. Kind of assay: MTS cell viability assay, UACC 903 melanoma cells. As to conditions: free drug in DMSO, 24 hours treatment, read-out: half-maximal inhibitory concentration (IC50), cell viability. Here is the method:
(§1) Human fibroblast FF2441 cells and metastatic melanoma cell lines UACC 903 and 1205 Lu were maintained in DMEM (Invitrogen), supplemented with 10% FBS (Hyclone). Cell lines were maintained in a 37° C. humidified 5% CO2 atmosphere incubator and periodically monitored for phenotypic and genotypic characteristics, and for tumorigenic potential.
(§2) Viability of fibroblast and melanoma cells (UACC 903 and 1205 Lu) following treatment with ATK, leelamine, nanolipoATK, and nanolipoATK-999 was measured by MTS assay (Promega, Madison, Wis.). Briefly, 5×10^3 melanoma or fibroblast (FF2441) cells were plated per well in 100 μL of media and grown in 96-well plates for 48 hours. Cells were then treated with ATK alone, leelamine alone, nanolipoATK, nanolipolee, or nanoleelATK-999 for 24 hours before measuring cell viability.
(§3) IC50 values were calculated using Prism 4.0 GraphPad Software. Calculsyn software was used to evaluate synergy.
(§4) The melanoma cell lines UACC 903 and 1205 Lu, and normal human fibroblast cells FF2441, were treated with 1 μM, 1.5 μM, 2 μM, 2.5 μM, 3 μM, 3.5 μM, 4 μM, 4.5 μM, or 5 μM leelamine in DMSO. […] IC50 values were calculated using GraphPad Prism software.
(§5) The melanoma cell lines UACC 903 and 1205 Lu were treated with 15 μM, 20 μM, 25 μM, 30 μM, 35 μM, 40 μM, 45 μM, 50 μM, or 55 μM ATK in DMSO. […] IC50 values were calculated using GraphPad Prism software.

The test system of assay [2] is fibroblast cell line FF2441. The assay can be described thus: MTS cell viability assay, normal fibroblasts FF2441. The settings on record: 1-5 μM leelamine in DMSO, 24 hours. Here is the method:
as §1, §2
The melanoma cell lines UACC 903 and 1205 Lu, and normal human fibroblast cells FF2441, were treated with 1 μM, 1.5 μM, 2 μM, 2.5 μM, 3 μM, 3.5 μM, 4 μM, 4.5 μM, or 5 μM leelamine in DMSO. Cells were maintained in DMEM supplemented with 10% FBS and L-glutamine. After 24 hours of treatment, an MTS assay was performed to determine the fractional cell viability relative to the DMSO control. IC50 values were calculated using GraphPad Prism software.

The test system of assay [3] is 1205 Lu melanoma cells. The assay can be described thus: MTS cell viability assay, 1205 Lu melanoma cells. The settings on record: free drug in DMSO, 24 hours treatment, read-out: half-maximal inhibitory concentration (IC50), cell viability. Here is the method:
as §1, §2, §3, §4, §5

The values that follow come from US9999603B2, “Compositions and methods including leelamine and arachidonyl trifluoromethyl ketone relating to treatment of cancer” (The Penn State Research Foundation, priority 2013, dated 2018).

For the molecule `CC(C)c1ccc2c(c1)CC[C@H]1[C@](C)(CN)CCC[C@]21C` [leelamine, (1R,4aS,10aR)-1,2,3,4,4a,9,10,10a-octahydro-1-,4a-dimethyl-7-(1-methylethyl)-1-phenanthrenemethanamine], the IC50 is 2.8 µM in assay [1] and 3.8 µM in assay [3]. In addition, the “killing of normal fibroblast cells” value in assay [2] is listed as “did not kill”.
